Measured values reported in the NIST ThermoML archive (doi:10.1016/j.fluid.2015.03.009).
Values joined by “and” are separate entries in the source; they are usually repeats but may differ in a detail not shown here. Identical values can stand only once. Numbers after ± are expanded uncertainties.

Conditions: Liquid, Closed cell (Static) method

| SMILES | vapor or sublimation pressure (348.15 K) | vapor or sublimation pressure (373.15 K) |
| --- | --- | --- |
| CCCCCC [hexane] | 123.12 ± 0.38 kPa and 123.03 ± 0.38 kPa and 122.84 ± 0.38 kPa | 247.22 ± 0.55 kPa and 245.99 ± 0.55 kPa and 245.79 ± 0.55 kPa |
| CO [methanol] | 150.71 ± 0.54 kPa and 150.69 ± 0.54 kPa and 150.67 ± 0.54 kPa | 352.64 ± 0.74 kPa and 352.62 ± 0.74 kPa and 352.7 ± 0.74 kPa |
| CCO [ethanol] | 88.59 ± 0.36 kPa and 88.58 ± 0.36 kPa | 224.37 ± 0.48 kPa and 224.31 ± 0.48 kPa |
